Experimental data taken from patent US5158939A, “Method of stimulating the immune systems of animals and compositions useful therefor” (priority 1990, dated 1992).

What was measured:
[1] = tested on: neutrophil; settings: literature; cited from earlier work
[2] = tested on: RAW 264.7 murine macrophage cells; assay: Cachectin/TNF production by RAW 264.7 cells, immunoblot; assay type: cell-based; settings: other lipid A analogs and precursors
Protocol: For the […] to activate the RAW 264.7 murine macrophage cell line, we chose the toxic deep rough chemotype LPS (ReLPS) from Escherichia coli D31m4, which was recently purified and characterized^15. […] This is a clear example of a lipid A derivative showing strong antagonism against a toxic agonist in the induction of cachectin.
The immunoblot method was used to quantitate the cachectin/TNF production by RAW 264.7 murine macrophage cells. RAW 264.7 cells^4,16 were seeded in 24-well plates (Nunc) at a density of 3×10^5 cells/well in Dulbecco's modified Eagle's medium supplemented with 5 percent fetal calf serum. After 12 hours, cell monolayers were washed twice with 1 ml of serum-free medium and then left covered with […] of the same. An aqueous suspension of DPLA and/or ReLPS was then added to a final concentration indicated. Cells were incubated for 12 hours, after which the medium was removed for measurement of TNF by immunoblotting. One hundred μl of medium was mixed with 100 μl of SDS-containing sample buffer, heated to 100° C. for 5 minutes, and subjected to electrophoresis in a 10-15% polyacrylamide gradient gel. Proteins were then transferred to nitrocellulose electrophoretically, and TNF was visualized through the use of a rabbit anti-mouse TNF polyclonal serum^3,5 applied at a 1:100 dilution, followed by alkaline phosphatase-conjugated goat anti-rabbit IgG (Bio-Rad).
Bands were visualized using nitroblue tetrazolium. Approximately 0.1 ng of cachectin/TNF may be detected as a band. The antiserum also recognized the processing intermediates (prohormones) on Western blot.

[3] = large excess of lipid X; cited from earlier work
[4] = tested on: 70Z/3 cells; settings: background; cited from earlier work

Row | Compound | inhibition of LPS-induced neutrophil priming [1] | induction of cachectin in RAW cells (immunoblot) [2] | blocking of toxic effects of lipid A [3] | activity in stimulating 70Z/3 cells [4]
1 | CCCCCCCCCCC[C@@H](O)CC(=O)N[C@H]1[C@@H](OP(=O)(O)O)O[C@H](CO)[C@@H](O)[C@@H]1NC(=O)C[C@H](O)CCCCCCCCCCC [3-aza-lipid X] | inhibit the LPS-induced neutrophil priming |  |  | 
2 | CCCCCCCCCCC[C@@H](O)CC(=O)N[C@H]1[C@@H](OP(=O)(O)O)O[C@H](CO)[C@@H](O)[C@@H]1OC(=O)C[C@H](O)CCCCCCCCCCC [lipid X] | inhibit the LPS-induced neutrophil priming | caused the induction of cachectin | partially blocking its toxic effects | some activity in stimulating 70Z/3 cells
3 | CCCCCCCCCCC[C@@H](O)CC(=O)N[C@H]1[C@H](OC[C@H]2O[C@H](OP(=O)(O)O)[C@H](NC(=O)C[C@H](O)CCCCCCCCCCC)[C@@H](OC(=O)C[C@H](O)CCCCCCCCCCC)[C@@H]2O)O[C@H](CO)[C@@H](OP(=O)(O)O)[C@@H]1OC(=O)C[C@H](O)CCCCCCCCCCC [precursor IVA, reference compound] |  | caused the induction of cachectin |  | 
4 | monophosphoryl lipid A [reference compound] |  | caused the induction of cachectin |  | 
